Results: article PMC3962780 (ChemMedChem, 2013)
Values belong to the compound of their own block, whether it stands above or below them.

Assays:
MCF-7 ER(+) cells = assay: Cytotoxicity assay; type: cell-based, human
MCF-7 cells = details: MCF-7, 48 h, 4-OHT 10 μM; ref Bicaku et al. [9b]; cited from earlier work
human recombinant HDAC2 = human recombinant HDAC2 (Homo sapiens, UniProt Q92769); assay: HDAC activity assay, recombinant HDAC2; type: biochemical
human recombinant HDAC1 = human recombinant HDAC1 (Homo sapiens, UniProt Q13547); assay: HDAC activity assay, recombinant HDAC1; type: biochemical
Sequence of human recombinant HDAC1 (Q13547 whole entry): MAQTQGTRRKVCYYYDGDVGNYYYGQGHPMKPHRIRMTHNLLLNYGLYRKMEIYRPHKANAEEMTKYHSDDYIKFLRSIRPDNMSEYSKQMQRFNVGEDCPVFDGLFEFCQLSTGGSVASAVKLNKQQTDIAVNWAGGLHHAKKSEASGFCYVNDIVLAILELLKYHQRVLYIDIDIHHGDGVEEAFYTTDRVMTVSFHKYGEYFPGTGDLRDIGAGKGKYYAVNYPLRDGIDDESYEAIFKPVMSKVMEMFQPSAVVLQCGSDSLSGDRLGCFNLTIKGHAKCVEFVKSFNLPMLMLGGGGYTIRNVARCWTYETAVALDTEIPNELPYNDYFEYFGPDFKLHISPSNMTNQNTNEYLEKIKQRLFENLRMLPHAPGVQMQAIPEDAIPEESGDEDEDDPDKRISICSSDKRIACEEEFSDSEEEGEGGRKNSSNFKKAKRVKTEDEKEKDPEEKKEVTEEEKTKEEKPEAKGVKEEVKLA

human recombinant HDAC3 = human recombinant HDAC3 (Homo sapiens, UniProt O15379); assay: HDAC activity assay, recombinant HDAC3; type: biochemical
Sequence of human recombinant HDAC3 (O15379 whole entry): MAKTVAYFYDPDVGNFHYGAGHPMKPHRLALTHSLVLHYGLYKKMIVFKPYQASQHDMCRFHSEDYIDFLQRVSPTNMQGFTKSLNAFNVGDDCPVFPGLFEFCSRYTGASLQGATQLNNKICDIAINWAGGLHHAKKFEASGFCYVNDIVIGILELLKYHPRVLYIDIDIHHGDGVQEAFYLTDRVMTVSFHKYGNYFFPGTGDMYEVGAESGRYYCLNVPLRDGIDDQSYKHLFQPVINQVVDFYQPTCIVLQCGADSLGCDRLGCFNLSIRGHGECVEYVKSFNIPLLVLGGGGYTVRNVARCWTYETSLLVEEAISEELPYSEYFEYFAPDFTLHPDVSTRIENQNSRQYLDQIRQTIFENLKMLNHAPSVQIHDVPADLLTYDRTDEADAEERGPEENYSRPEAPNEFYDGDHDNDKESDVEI
Sequence of human recombinant HDAC3 (Q9Y618 395-489 partner limits assumed): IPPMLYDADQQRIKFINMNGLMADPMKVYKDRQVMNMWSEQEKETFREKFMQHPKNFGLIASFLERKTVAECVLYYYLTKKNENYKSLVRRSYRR

[1] = target: T1, recombinant HDAC8 (purified from E. coli) (Homo sapiens, UniProt Q9BY41); assay: HDAC activity assay, recombinant HDAC8; type: biochemical
T1 sequence (Q9BY41 1-377): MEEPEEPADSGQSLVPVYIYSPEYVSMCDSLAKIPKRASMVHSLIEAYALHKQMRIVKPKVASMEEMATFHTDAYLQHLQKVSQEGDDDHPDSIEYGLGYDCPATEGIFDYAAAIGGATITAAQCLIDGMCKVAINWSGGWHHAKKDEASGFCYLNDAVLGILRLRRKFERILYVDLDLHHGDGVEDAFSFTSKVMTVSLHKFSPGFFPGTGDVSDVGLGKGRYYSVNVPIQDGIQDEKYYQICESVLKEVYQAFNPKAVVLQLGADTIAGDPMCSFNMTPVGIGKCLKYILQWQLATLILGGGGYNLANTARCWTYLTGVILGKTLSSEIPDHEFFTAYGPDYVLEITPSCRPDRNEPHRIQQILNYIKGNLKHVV

ERα [2] = target: T2, ERα (Homo sapiens, UniProt P03372); assay: Inhibition of 17β estradiol induced ERE-luciferase activity in MCF-7 cells; type: cell-based; details: cotreatment with E2
T2 sequence (P03372 1-595): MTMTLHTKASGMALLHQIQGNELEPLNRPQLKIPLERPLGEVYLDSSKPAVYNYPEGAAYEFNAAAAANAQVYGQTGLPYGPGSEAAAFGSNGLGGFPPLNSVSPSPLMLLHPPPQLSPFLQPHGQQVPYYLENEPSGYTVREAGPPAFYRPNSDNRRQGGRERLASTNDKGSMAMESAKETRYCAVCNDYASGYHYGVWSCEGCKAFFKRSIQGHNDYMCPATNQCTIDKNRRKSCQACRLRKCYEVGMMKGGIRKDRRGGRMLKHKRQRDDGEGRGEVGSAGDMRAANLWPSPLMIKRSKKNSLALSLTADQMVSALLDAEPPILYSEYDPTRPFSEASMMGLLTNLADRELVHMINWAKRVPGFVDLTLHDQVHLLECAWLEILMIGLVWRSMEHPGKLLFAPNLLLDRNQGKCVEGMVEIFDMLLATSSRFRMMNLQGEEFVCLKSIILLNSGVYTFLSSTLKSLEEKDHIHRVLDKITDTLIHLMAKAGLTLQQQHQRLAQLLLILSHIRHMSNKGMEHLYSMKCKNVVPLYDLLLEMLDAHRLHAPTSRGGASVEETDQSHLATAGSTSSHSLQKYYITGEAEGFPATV

MDA-MB-231 ER(−) cells = assay: Cytotoxicity assay; type: cell-based, human; details: hybrid molecules 10 μM; 24, 48 and 72 h
ERα [3] = target: T2, ERα; assay: Ishikawa alkaline phosphatase assay; type: cell-based

Sequence of human recombinant HDAC2 (Q92769 whole entry): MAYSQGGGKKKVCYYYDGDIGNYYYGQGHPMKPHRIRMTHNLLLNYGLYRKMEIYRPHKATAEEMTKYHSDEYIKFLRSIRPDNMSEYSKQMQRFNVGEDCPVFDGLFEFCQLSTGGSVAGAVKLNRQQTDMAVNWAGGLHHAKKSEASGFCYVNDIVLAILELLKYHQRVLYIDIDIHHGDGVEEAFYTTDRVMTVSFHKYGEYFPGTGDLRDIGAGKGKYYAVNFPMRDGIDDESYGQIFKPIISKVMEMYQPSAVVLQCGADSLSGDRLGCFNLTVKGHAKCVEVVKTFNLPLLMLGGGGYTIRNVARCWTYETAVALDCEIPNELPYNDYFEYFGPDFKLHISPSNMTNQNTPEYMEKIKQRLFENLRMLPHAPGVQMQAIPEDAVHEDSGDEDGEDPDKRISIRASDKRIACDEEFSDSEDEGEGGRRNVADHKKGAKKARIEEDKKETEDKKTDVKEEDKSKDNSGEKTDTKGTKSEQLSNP

SMILES: CC/C(=C(\c1ccc(O)cc1)c1ccc(OCCN(C)C)cc1)c1ccccc1 [4OHT, 4-hydroxytamoxifen]
Cell death, combination with SAHA (MCF-7 ER(+) cells; ER(+) MCF-7 cells, 72 h combination treatment): modest but significantly increased cell death | Increase in apoptosis in combination with SAHA over SAHA alone (MCF-7 cells): approximately 10%

IC50 (human recombinant HDAC2): 2.44 ± 0.02 µM | IC50 (human recombinant HDAC1): 0.596 ± 0.051 µM | IC50 (human recombinant HDAC3): 0.214 ± 0.006 µM | IC50 [1]: 0.719 ± 0.063 µM
SMILES: O=C(CCCCCNC(=O)c1c(-c2ccc(O)cc2)sc2cc(O)ccc12)NO [8a, 6-hydroxy-N-(6-(hydroxyamino)-6-oxohexyl)-2-(4-hydroxyphenyl)benzo[b]thiophene-3-carboxamide]

SMILES: O=C(CCCCCCNC(=O)c1c(-c2ccc(O)cc2)sc2cc(O)ccc12)NO [8b, 6-hydroxy-N-(7-(hydroxyamino)-7-oxoheptyl)-2-(4-hydroxyphenyl)benzo[b]thiophene-3-carboxamide]
Inhibition of estrogenic response (antiestrogenic activity), ERE-luciferase reporter (ERα [2]): concentration dependent inhibition of estrogenic response

IC50 (human recombinant HDAC2): 19.2 ± 0.65 µM | IC50 (human recombinant HDAC1): 8.39 ± 0.3 µM | IC50 (human recombinant HDAC3): 5.74 ± 0.53 µM | IC50 [1]: 23.5 ± 1.5 µM
SMILES: O=C(CCCCn1cc(-c2ccc(C(=O)c3c(-c4ccc(O)cc4)sc4cc(O)ccc34)cc2)nn1)NO [15a, N-hydroxy-5-(4-(4-(6-hydroxy-2-(4-hydroxyphenyl)benzo[b]thiophene-3-carbonyl)phenyl)-1H-1,2,3-triazol-1-yl)pentanamide]

SMILES: O=C(CCCCCn1cc(-c2ccc(C(=O)c3c(-c4ccc(O)cc4)sc4cc(O)ccc34)cc2)nn1)NO [15b, N-hydroxy-6-(4-(4-(6-hydroxy-2-(4-hydroxyphenyl)benzo[b]thiophene-3-carbonyl)phenyl)-1H-1,2,3-triazol-1-yl)hexanamide]
Cell death in MDA-MB-231 ER(−) cells (MDA-MB-231 ER(−) cells): caused significant cell death | Inhibition of estrogenic response (antiestrogenic activity), ERE-luciferase reporter (ERα [2]): concentration dependent inhibition of estrogenic response | IC50 (ERα [3]): 2.9 ± 0.3 µM

SMILES: Oc1ccc(-c2sc3cc(O)ccc3c2Oc2ccc(OCCN3CCCCC3)cc2)cc1 [DMA, desmethylarzoxifene]
Toxicity towards MCF-7 cells (MCF-7 ER(+) cells; 10 μM, 72 h treatment): toxic

SMILES: O=C(Nc1cc(-c2ccccc2)ccc1O)c1c(-c2ccc(O)cc2)sc2cc(O)ccc12 [compound 10, 6-hydroxy-N-[4-hydroxy-(1,1′-biphenyl)-3-yl]-2-(hydroxyphenyl)benzo[b]thiophene-3-carboxamide]
% inhibition of HDAC1 (human recombinant HDAC1; pre-incubation 3 h): 21–34% | % inhibition of HDAC3 (human recombinant HDAC3; pre-incubation 3 h): 0–12%
